From the SangsterLogP compilation
Square brackets hold non-standard residues; d marks the D form. Peptide text beside a SMILES is read from it. NMeF = CN[CH](Cc1ccccc1)C(=O)O

Columns and labels:
[1] = method code SF-HPLC, from DOI: 10.1016/0045-6535(86)90532-1; conditions: pH 6.5
[2] = method code SF-HPLC, from DOI: 10.1021/jm00169a024, PMID: 2194033; conditions: pH 7.4
[3] = method code SF-RC, from DOI: 10.1023/a:1015867608405, PMID: 1614980; conditions: pH 7.4
[4] = not given; remark: listed apart in the source
[5] = method code SF-CR+AS, from DOI: 10.1007/bf00500994, PMID: 4267539; conditions: pH 7.4
[6] = method code HPLC, from DOI: 10.1016/j.ejmech.2015.05.022, PMID: 26005028; conditions: pH 7.1
[7] = method code SF, from DOI: 10.1515/znc-1979-1128; conditions: pH 7.4
[8] = not given; remark: listed apart in the source
[9] = method code SF-HPLC, from DOI: 10.2174/1871523013666141114203105, PMID: 25403255; conditions: pH 7.4
[10] = method code HPLC, from DOI: 10.1016/j.bmcl.2004.01.062, PMID: 15026043; conditions: pH 5.5
[11] = not given; remark: listed apart in the source
[12] = method code SF-HPLC, from DOI: 10.1016/0378-5173(91)90200-8; conditions: pH 7.4
[13] = not given; remark: listed apart in the source
[14] = not given; remark: listed apart in the source
[15] = method code SF-AS, from DOI: 10.1016/j.ejmech.2011.02.056, PMID: 21420207
[16] = not given; remark: listed apart in the source
[17] = method code SF-GLC, from DOI: 10.1002/jps.2600620103, PMID: 4734195
[18] = method code SF, from PMID: 26783178
[19] = not given; remark: listed apart in the source
[20] = method code SF-AS, from DOI: 10.1021/jm0104926, PMID: 11960499
[21] = method code SF-HPLC, from DOI: 10.1002/jccs.199500138
[22] = method code SF-HPLC, from DOI: 10.1002/jlac.1995199512306
[23] = not given; remark: listed apart in the source
[24] = method code SF-AS, from DOI: 10.1002/jps.2600710122
[25] = not given; remark: listed apart in the source

Structure (SMILES): CCCCNC(=S)NCCCC
- logD [1]: 2.75

Structure (SMILES): CO[C@@H]1[C@@H](O[C@@H]2O[C@H](C)[C@@H](O)[C@H](N(C)C)[C@H]2O)[C@@H](CC=O)C[C@@H](C)C(=O)/C=C\[C@H]2O[C@H]2C[C@@H](C)OC(=O)C[C@H]1OC(C)=O
- logP: 0.3

Structure (SMILES): CCN1CC(C(O)[C@H](CC2CCCCC2)NC(=O)[C@H](Cc2cnc[nH]2)NC(=O)[C@@H](CC(=O)N(C)CCOC)Cc2ccccc2)OC1=O (some centres not stated)
- logD [2]: 2.45

Structure (SMILES): CC(=O)NC(Cc1ccccc1)C(=O)NC(Cc1ccccc1)C(=O)N(C)C(Cc1ccccc1)C(N)=O (stereo not drawn) (Ac-Phe-Phe-[NMeF]-NH2; configuration not given here)
- logD [3]: 2.63

Structure (SMILES): Fc1ccccc1
- logP [4]: 2.01

Structure (SMILES): OCC(Cl)(Cl)Cl
- logD [5]: 1.42

Structure (SMILES): O=CC(Cl)(Cl)Cl
- logD [5]: 1.61

Structure (SMILES): CC[C@H]1OC(=O)C[C@@H](O)[C@H](C)[C@@H](O[C@@H]2O[C@H](C)C[C@H](N(C)C)[C@H]2O)[C@@H](CC=O)C[C@@H](C)C(=O)/C=C/[C@]2(C)O[C@H]2[C@@H]1C
- logP: 2.19

Structure (SMILES): S=C1NCCN1
- logD [1]: -0.66

Structure (SMILES): CCCCCCNC(=O)CBr
- logD [6]: 2.18

Structure (SMILES): CCN1CC(C(O)[C@H](CC2CCCCC2)NC(=O)[C@H](Cc2cnc[nH]2)NC(=O)[C@@H](CC(=O)N(C)CCOCOC)Cc2ccccc2)OC1=O (some centres not stated)
- logD [2]: 2.49

Structure (SMILES): CC1=C(C)C(O)N(c2ccc(C)c(C)c2)C1=O (configuration not stated)
- logD [7]: 2.36

Structure (SMILES): ClC(Cl)(Cl)Cl
- logP [8]: 2.59

Structure (SMILES): COc1cc(C=O)ccc1OC(=O)COC(=O)Cc1ccccc1Nc1c(Cl)cccc1Cl
- logD [9]: 4.86

Structure (SMILES): CN(C)C(=O)Oc1ccc(CC(NC(=O)C2N(S(=O)(=O)c3cnn(C)c3)CSC2(C)C)C(=O)OCC(C)(C)C)cc1 (configuration not stated)
- logD [10]: 3.42

Structure (SMILES): CCCC
- logP [8]: 2.74

Structure (SMILES): CCCCCCCCc1ccc(OCC(=O)Cn2ccc3cc(C(=O)O)ccc32)cc1
- logP [11]: 6.3

Structure (SMILES): CCC(C(=O)OCc1ccc(COC(=O)C(CC)C(COC(=O)CC(=O)OC)Cc2cncn2C)cc1)C(COC(=O)CC(=O)OC)Cc1cncn1C (configuration not stated)
- logD [12]: 2.76

Structure (SMILES): CCOC(=O)CC(Cc1cncn1C)C(CC)C(=O)OCc1ccc(COC(=O)C(CC)C(CC(=O)OCC)Cc2cncn2C)cc1 (configuration not stated)
- logD [12]: 4.08

Structure (SMILES): CCC#N
- logP [13]: 0.1

Structure (SMILES): c1ncncn1
- logD [7]: -0.73

Structure (SMILES): COC(=O)CBr
- logD [6]: 0.77

Structure (SMILES): C=CCBr
- logP [14]: 1.9

Structure (SMILES): C=CCc1ccc(OC(=O)COC(=O)Cc2ccccc2Nc2c(Cl)cccc2Cl)c(OC)c1
- logD [9]: 5.13

Structure (SMILES): COc1ccccc1OC(=O)COC(=O)Cc1ccccc1Nc1c(Cl)cccc1Cl
- logD [9]: 4.6

Structure (SMILES): CCCCCCCCCCCCCCCC(=O)N[C@H]1C[C@H](O[C@H]2C[C@](O)(C(=O)CO)Cc3c(O)c4c(c(O)c32)C(=O)c2c(OC)cccc2C4=O)O[C@@H](C)[C@H]1O
- logP [15]: 2.19

Structure (SMILES): CCCCCCCCCCCC(=O)N[C@H]1C[C@H](O[C@H]2C[C@](O)(C(=O)CO)Cc3c(O)c4c(c(O)c32)C(=O)c2c(OC)cccc2C4=O)O[C@@H](C)[C@H]1O
- logP [15]: 1.96

Structure (SMILES): CC(C)OC(=O)C(Cc1ccc(OC(=O)N(C)C)cc1)NC(=O)C1N(S(=O)(=O)c2cnn(C)c2)CSC1(C)C (configuration not stated)
- logD [10]: 2.46

Structure (SMILES): ClC(Br)Br
- logP [16]: 2.24

Structure (SMILES): CCCCCCCCc1ccc(OCC(=O)Cn2cc(C(=O)C(C)C)c3cc(C(=O)O)ccc32)cc1
- logP [11]: 6.6

Structure (SMILES): CC(O)C(F)(F)F (configuration not stated)
- logP [17]: 0.71

Structure (SMILES): CCc1ccc(S(=O)(=O)NCCCC2C(=O)N(c3ccc(C)cc3)C2c2ccc(NS(C)(=O)=O)cc2)cc1 (configuration not stated)
- logP [18]: 3.62

Structure (SMILES): Cc1c(-c2cnccn2)ssc1=S
- logP [19]: 2.79

Structure (SMILES): ClC(Cl)Br
- logP [16]: 2.1

Structure (SMILES): FC(F)(C(Cl)Br)C1N=N1 (configuration not stated)
- logP [20]: 1.9

Structure (SMILES): FC(Cl)C(F)(F)C1(Br)N=N1 (configuration not stated)
- logP [20]: 2.18

Structure (SMILES): CC(C)=O
- logP [4]: -0.17

Structure (SMILES): CC(=O)OC1CCC2(C)C3=CCC4(C)C(C(C)CCC=C(C)C(=O)O)CC(O)C4(C)C3=CCC2C1(C)C (configuration not stated)
- logP [21]: 2.72

Structure (SMILES): CC(=O)O[C@@H]1C[C@@H]([C@@H](C)CC/C=C(\C)C(=O)O)[C@]2(C)CC=C3C(=CCC4C(C)(C)[C@H](O)CC[C@@]34C)[C@@]12C (some centres not stated)
- logP [21]: 2.71

Structure (SMILES): CCN1CC(C(O)[C@H](CC2CCCCC2)NC(=O)[C@H](Cc2cnc[nH]2)NC(=O)[C@@H](Cc2ccc(OC)cc2)NC(=O)N2CCOCC2)OC1=O (some centres not stated)
- logD [2]: 2.11

Structure (SMILES): Cc1ccc(N2C(=O)[C@H](CCCNS(=O)(=O)c3ccc(OC(F)(F)F)cc3)[C@H]2c2ccc([N+](=O)[O-])cc2)cc1
- logP [18]: 4.55

Structure (SMILES): Cc1cn(C2CC(N=[N+]=[N-])C(COP(=O)(OCc3cccc([N+](=O)[O-])c3)OCC3OC(n4cc(C)c(=O)[nH]c4=O)CC3N=[N+]=[N-])O2)c(=O)[nH]c1=O (configuration not stated)
- logP [22]: 0.99

Structure (SMILES): CC(=CCCC(C)C1CC(O)C2(C)C3=CCC4C(C)(CCC(O)C4(C)C)C3=CCC12C)C(=O)O (configuration not stated)
- logP [21]: 2.69

Structure (SMILES): CC(C)CCC[C@@H](C)[C@H]1CC[C@H]2C3=CC=C4C[C@@H](O)CC[C@]4(C)[C@H]3CC[C@]12C
- logP [23]: 8.65

Structure (SMILES): CCCCCCCCc1ccc(OCC(=O)Cn2cc(C(=O)OC)c3cc(C(=O)O)ccc32)cc1
- logP [11]: 6.2

Structure (SMILES): CC(=O)N(C)C(Cc1ccccc1)C(=O)N(C)C(Cc1ccccc1)C(=O)N(C)C(Cc1ccccc1)C(N)=O (configuration not stated) (Ac-[NMeF]-[NMeF]-[NMeF]-NH2; configuration not given here)
- logD [3]: 2.92

Structure (SMILES): CC1=C(C/C=C(\C)CCC[C@H](C)CCC[C@H](C)CCCC(C)C)C(=O)c2ccccc2C1=O
- logP [23]: 11.7

Structure (SMILES): CCC(C(=O)OCc1ccc(COC(=O)C(CC)C(COC(C)=O)Cc2cncn2C)cc1)C(COC(C)=O)Cc1cncn1C (configuration not stated)
- logD [12]: 3.04

Structure (SMILES): CC(=O)Nc1n[nH]c(NC(C)=O)n1
- logP [24]: -1.01

Structure (SMILES): CC(=O)OCCCCOC(C)=O
- logP [14]: 0.01

Structure (SMILES): Cc1cn(C2CC(N=[N+]=[N-])C(COP(=O)(OCc3ccc(C#N)cc3)OCC3OC(n4cc(C)c(=O)[nH]c4=O)CC3N=[N+]=[N-])O2)c(=O)[nH]c1=O (configuration not stated)
- logP [22]: 0.91

Structure (SMILES): Nc1ccc(S(=O)(=O)NC(=O)c2ccccc2)cc1
- logP [13]: 1.46

Structure (SMILES): COc1ccc(C(=O)C2c3cccc(O)c3C(=O)c3c(O)cccc32)cc1OC
- logP [25]: 3.45

Structure (SMILES): Cc1cn(C2CC(N=[N+]=[N-])C(COP(=O)(OCc3ccccc3)OCC3OC(n4cc(C)c(=O)[nH]c4=O)CC3N=[N+]=[N-])O2)c(=O)[nH]c1=O (configuration not stated)
- logP [22]: 1.34

Structure (SMILES): Nc1nc(NC(=O)C(F)(F)C(F)(F)C(F)(F)F)n[nH]1
- logP [24]: 1.54

Structure (SMILES): CCCCCCCC(=O)N[C@H]1C[C@H](O[C@H]2C[C@](O)(C(=O)CO)Cc3c(O)c4c(c(O)c32)C(=O)c2c(OC)cccc2C4=O)O[C@@H](C)[C@H]1O
- logP [15]: 1.81

Structure (SMILES): C=C1CC[C@H](O)C/C1=C/C=C1\CCC[C@]2(C)[C@@H]([C@H](C)CCCC(C)C)CC[C@@H]12
- logP [23]: 10.2

Structure (SMILES): O=C1[C@H](CC[C@H](O)c2ccc(F)cc2)[C@@H](c2ccc(O)cc2)N1c1ccc(F)cc1
- logP [18]: 3.64

Structure (SMILES): CNC(=O)C(Cc1ccccc1)N(C)C(=O)C(Cc1ccccc1)N(C)C(=O)C(Cc1ccccc1)N(C)C(C)=O (configuration not stated) (Ac-[NMeF]-[NMeF]-[NMeF]-NHMe; configuration not given here)
- logD [3]: 3.24

Structure (SMILES): CC[C@H]1OC(=O)[C@H](C)[C@@H](O[C@H]2C[C@@](C)(OC)[C@@H](O)[C@H](C)O2)[C@H](C)[C@@H](O[C@@H]2O[C@H](C)C[C@H](N(C)C)[C@H]2O)[C@](C)(O)C[C@@H](C)C(=O)[C@H](C)[C@@H](O)[C@]1(C)O
- logP: 3.06

Structure (SMILES): NC(=O)c1cssc1=S
- logP [19]: 0.3

Structure (SMILES): OCC(Cl)Cl
- logP [17]: 0.37
